Laboratory results: patent publication US20150018301A1, “LRRK-2-Mediated Neuronal Toxicity” (THE JOHNS HOPKINS UNIVERSITY, priority 2009, published 2015)

Assays:
LRRK2 WT [1] = target: T1, LRRK2 WT (Homo sapiens, UniProt Q5S007); assay: In vitro kinase assay: LRRK2-mediated MBP phosphorylation; type: biochemical; settings: for effect on LRRK2-mediated phosphorylation of MBP: screen at 16 μM; for IC50: mean of three experiments; for MBP phosphorylation Average ± SEM: compound 16 μM, 30° C., 15 min, normalized to absence of compound, mean ± S.E.M. of three experiments
T1 sequence (Q5S007 whole entry): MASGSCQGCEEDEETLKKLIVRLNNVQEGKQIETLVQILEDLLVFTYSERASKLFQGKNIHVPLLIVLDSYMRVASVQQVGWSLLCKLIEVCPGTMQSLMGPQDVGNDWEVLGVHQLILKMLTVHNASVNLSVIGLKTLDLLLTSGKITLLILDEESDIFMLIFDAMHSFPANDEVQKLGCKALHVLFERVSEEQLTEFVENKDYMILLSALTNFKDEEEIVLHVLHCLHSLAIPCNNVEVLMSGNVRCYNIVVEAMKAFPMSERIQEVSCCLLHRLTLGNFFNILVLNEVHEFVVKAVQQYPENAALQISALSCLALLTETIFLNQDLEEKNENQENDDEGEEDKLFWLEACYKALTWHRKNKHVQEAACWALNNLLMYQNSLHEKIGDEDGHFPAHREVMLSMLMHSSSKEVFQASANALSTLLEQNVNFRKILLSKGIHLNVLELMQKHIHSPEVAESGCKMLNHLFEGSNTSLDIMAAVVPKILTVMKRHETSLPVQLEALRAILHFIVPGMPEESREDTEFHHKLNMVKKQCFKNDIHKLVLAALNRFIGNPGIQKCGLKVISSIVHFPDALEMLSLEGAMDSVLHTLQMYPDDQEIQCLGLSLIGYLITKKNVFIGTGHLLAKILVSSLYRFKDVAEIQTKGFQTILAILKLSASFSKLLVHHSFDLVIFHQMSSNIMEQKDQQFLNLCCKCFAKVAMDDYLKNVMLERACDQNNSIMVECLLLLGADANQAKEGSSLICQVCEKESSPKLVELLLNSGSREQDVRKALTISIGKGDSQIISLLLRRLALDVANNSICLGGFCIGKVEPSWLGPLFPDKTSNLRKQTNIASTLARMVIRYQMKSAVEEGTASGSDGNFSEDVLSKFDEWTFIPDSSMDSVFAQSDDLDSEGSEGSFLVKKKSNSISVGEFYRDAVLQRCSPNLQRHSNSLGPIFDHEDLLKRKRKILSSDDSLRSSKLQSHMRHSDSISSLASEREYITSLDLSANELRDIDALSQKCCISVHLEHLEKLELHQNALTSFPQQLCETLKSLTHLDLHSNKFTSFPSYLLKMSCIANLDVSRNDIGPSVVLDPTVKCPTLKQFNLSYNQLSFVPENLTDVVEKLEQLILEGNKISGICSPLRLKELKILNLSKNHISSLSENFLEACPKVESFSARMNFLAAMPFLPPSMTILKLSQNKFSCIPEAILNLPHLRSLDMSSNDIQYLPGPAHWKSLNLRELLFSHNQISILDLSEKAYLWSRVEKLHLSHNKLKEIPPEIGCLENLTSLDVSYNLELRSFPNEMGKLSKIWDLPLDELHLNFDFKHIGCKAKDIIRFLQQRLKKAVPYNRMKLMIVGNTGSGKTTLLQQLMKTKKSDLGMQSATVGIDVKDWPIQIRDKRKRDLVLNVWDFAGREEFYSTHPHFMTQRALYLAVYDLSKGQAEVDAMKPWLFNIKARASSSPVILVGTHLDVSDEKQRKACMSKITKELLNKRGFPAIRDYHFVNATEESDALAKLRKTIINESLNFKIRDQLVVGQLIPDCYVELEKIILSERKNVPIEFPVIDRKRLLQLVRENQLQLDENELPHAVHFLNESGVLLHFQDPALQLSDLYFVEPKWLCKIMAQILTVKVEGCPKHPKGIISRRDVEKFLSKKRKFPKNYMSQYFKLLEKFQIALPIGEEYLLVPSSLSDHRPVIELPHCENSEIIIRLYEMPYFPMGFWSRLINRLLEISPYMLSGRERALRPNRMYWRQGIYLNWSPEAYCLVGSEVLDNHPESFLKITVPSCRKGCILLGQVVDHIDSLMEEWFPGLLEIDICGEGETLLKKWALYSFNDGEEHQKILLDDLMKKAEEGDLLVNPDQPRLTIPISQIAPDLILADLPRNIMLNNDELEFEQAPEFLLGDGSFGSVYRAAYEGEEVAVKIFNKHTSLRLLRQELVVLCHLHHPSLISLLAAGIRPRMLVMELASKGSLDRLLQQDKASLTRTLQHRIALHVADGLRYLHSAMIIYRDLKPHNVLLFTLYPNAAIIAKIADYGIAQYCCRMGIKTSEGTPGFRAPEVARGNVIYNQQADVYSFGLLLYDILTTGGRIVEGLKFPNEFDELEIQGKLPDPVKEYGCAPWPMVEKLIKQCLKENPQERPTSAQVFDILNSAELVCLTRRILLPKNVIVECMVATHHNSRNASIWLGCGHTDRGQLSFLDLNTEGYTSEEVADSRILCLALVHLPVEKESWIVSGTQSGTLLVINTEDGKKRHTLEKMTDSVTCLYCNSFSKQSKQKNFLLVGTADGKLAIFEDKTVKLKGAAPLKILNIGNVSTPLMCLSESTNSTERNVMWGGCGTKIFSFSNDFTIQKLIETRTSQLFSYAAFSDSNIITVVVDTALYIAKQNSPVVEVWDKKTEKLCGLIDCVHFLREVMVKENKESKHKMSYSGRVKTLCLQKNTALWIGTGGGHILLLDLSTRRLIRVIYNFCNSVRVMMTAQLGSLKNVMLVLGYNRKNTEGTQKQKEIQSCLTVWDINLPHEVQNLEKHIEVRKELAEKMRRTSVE

LRRK1 WT [2] = target: T2, LRRK1 WT (Homo sapiens, UniProt Q38SD2); assay: In vitro kinase assay: LRRK1 autophosphorylation; type: biochemical
T2 sequence (Q38SD2 whole entry): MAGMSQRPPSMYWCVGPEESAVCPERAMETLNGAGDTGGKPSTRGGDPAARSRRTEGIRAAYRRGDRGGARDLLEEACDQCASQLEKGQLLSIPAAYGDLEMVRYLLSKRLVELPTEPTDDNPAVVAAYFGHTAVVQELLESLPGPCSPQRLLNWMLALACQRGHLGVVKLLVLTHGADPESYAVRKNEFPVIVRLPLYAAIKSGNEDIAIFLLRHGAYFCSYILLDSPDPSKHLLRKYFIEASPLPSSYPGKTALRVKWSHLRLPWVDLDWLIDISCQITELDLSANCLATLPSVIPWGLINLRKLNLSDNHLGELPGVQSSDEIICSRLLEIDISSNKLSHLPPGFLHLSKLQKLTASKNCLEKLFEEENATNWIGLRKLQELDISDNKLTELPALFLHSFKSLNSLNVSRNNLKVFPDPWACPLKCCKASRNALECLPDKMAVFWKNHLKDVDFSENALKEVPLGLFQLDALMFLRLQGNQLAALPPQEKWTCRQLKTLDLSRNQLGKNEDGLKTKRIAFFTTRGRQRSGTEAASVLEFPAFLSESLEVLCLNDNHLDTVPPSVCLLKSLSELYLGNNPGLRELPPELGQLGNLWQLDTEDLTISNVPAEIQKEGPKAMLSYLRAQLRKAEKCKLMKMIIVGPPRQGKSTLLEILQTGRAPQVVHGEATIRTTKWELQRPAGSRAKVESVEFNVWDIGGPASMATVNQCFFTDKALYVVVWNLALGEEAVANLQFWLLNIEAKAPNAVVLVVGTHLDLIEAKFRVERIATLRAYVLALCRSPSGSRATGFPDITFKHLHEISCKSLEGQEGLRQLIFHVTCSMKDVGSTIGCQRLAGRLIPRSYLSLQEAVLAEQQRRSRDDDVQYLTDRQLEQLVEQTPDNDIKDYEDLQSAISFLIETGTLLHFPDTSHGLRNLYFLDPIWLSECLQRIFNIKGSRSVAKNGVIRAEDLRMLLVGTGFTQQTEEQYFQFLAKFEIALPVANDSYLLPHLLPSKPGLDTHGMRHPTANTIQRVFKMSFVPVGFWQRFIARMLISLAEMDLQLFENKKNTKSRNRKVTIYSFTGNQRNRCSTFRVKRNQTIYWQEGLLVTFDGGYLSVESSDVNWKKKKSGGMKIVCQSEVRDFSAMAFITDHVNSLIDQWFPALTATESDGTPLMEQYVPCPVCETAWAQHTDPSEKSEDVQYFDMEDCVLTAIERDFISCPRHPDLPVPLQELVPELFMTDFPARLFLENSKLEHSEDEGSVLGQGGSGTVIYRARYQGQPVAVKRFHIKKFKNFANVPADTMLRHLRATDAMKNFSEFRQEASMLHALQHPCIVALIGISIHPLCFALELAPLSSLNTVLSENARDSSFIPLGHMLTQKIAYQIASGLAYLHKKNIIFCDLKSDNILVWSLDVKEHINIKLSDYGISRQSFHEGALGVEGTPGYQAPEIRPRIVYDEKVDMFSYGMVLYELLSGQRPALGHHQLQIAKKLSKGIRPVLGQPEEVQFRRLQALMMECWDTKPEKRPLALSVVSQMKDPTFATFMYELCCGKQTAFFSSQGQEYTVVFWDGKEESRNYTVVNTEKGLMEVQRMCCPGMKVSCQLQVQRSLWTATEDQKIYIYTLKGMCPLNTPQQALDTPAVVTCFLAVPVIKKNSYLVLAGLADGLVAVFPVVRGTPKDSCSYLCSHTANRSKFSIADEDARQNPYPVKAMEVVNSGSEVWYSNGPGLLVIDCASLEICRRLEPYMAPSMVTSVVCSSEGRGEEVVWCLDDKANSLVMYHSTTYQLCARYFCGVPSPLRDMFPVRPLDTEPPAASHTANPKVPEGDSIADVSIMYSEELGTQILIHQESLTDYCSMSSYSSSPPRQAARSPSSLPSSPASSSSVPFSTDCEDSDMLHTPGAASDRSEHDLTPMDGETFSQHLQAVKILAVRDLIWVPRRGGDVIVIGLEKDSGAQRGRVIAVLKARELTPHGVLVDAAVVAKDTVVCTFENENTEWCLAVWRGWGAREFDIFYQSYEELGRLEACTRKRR

LRRK1 WT [3] = target: T2, LRRK1 WT; assay: In vitro kinase assay: LRRK1-mediated MBP phosphorylation; type: biochemical; settings: for IC50: Table 3, mean of three experiments
LRRK2 WT [4] = target: T1, LRRK2 WT; assay: In vitro kinase assay: LRRK2 autophosphorylation; type: biochemical; settings: for IC50: mean of three experiments; for LRRK2 autophosphorylation Average ± SEM: compound 16 μM, phosphorylation normalized to absence of compound, mean ± S.E.M. of three experiments; for effect on LRRK2 autophosphorylation: screen at 16 μM
LRRK2 G2019S [5] = target: T3, LRRK2 G2019S (Homo sapiens, UniProt Q5S007, G2019S); assay: In vitro kinase assay: G2019S LRRK2 autophosphorylation; type: biochemical; settings: mean of three experiments
T3 sequence (Q5S007 whole entry G2019S): as the sequence (Q5S007 whole entry) above, with G2019S counted along it
Procedure: (§1) Transfection was performed by using Fugene HD reagent (Roche Applied Science) according to the manufacturer's instruction. For purification of recombinant LRRK1 and LRRK2 proteins, ACTA Purifier (GE Healthcare) FPLC system was used.
(§2) Resulting lysates were rotated at 4° C. for 30 min followed by centrifugation at 20,000×g for 15 min. The supernatants were injected into a GSTrap FF column pre-equilibrated with PBS at 0.5. mL/min flow after filtration using a 0.2 μm syringe filter (Corning). The bound proteins were eluted with buffer containing 10 mM GSH (Sigma), 150 mM NaCl, and 50 mM Tris-HCl (pH 8.0).
(§3) The in vitro kinase assay was performed as previously described. […] Recombinant LRRK2 and MBP or CST-4E-BP1 were combined before the kinase reaction. LRRK2 autophosphorylation is LRRK2 itself phosphorylation and MBP or GST-4E-BP1 phosphorylation is induced by LRRK2. After the kinase reaction, combined LRRK2 and MBP or GST-4E-BP1 were loaded on SDSPAGE and phosphorylated LRRK2 and MBP or GST-4E-BP1 could be detected separately an a single gel. Recombinant proteins and inhibitors were incubated at 30° C. in kinase assay buffer containing 20 mM Hepes (pH 7.4), 5 mM EGTA, and 20 mM β-glycerol phosphate. 0.5 μg MBP (Upstate) or 0.5 μg GST-4B-BP1, 50 μM ATP (Sigma), 20 mM MgCl2, and 1 μCi [γ-32P] ATP (PerkinElmer) was added after 5 min. The reaction was performed at 30° C. to reduce non-specific 32P incorporation for 15 min and terminated by the addition of 5×Laemmili sample buffer. […] Gels were stained by coomassie brilliant blue after fixation with 10% acetic acid and 40% methanol and then exposed to a Phosphoimager. Data were analyzed by ImageQuant 6.0 software.
(§4) To calculate the IC50 value, a dose-response curve was constructed and non-linear regression analysis using the equation for a sigmoid plot.

LRRK2 G2019S [6] = target: T3, LRRK2 G2019S; assay: In vitro kinase assay: G2019S LRRK2-mediated MBP phosphorylation; type: biochemical; settings: mean of three experiments
Procedure: as §1, §2, §3, §4

[7] = tested on: rat primary cortical neuronal cultures transfected with G2019S LRRK2; assay: LRRK2-induced neuronal toxicity in primary cortical neuronal cultures (neurite shortening, TUNEL); type: cell-based; settings: 0.5 μM
Procedure: Representative photomicrographs of each experimental group. LRRK2 and eGFP constructs were combined in a molar ratio of 10:1, respectively, and transfected by using of Lipofectamine 2000 (Invitrogen) at DIV (day in vitro) 14 into rat primary cortical neuronal cultures. Compounds (0.5 μM) were administrated at the time of transfection and continued until toxicity assessments. On DIV 16, images were collected on a Zeiss Automatic stage with Axiovision 6.0. (a) Low magnified photomicrographs; (b and c) High magnified photomicrographs. Scale bar=50 μm (a) and 10 μm (b and c);
Primary cortical neuronal cultures were prepared from gestational day 15 fetal rats as previously described. Gonzalez-Zulueta, M., et al. Manganese superoxide dismutase protects nNOS neurons from NMDA and nitric oxide-mediated neurotoxicity. J Neurosci 18, 2040-2055 (1998). All procedures used in this study were approved by the Johns Hopkins Medical Institute Animal Care Committee. Cell viability assays and DNA fragmentation (TUNEL assay) were performed as previously described. Smith, W. W., et al. Kinase activity of mutant LRRK2 mediates neuronal toxicity. Nat Neurosci 9, 1231-1233 (2006); West, A. B., et al. Parkinson's disease-associated mutations in LRRK2 link enhanced GTP-binding and kinase activities to neuronal toxicity. Hum Mol Genet 16, 223-232 (2007). The cortex was dissected, incubated for 15 min in 0.027% trypsin, and then transferred to modified Eagle's medium (MEM)/10% horse serum/10% fetal bovine serum/2 mM glutamine followed by trituration. Dissociated cells were plated at a density of 3-4×10^5 cells per well in polyornithine-coated plates. After 4 days the cells were treated with 10 μg of 5-fluoro-2′-deoxyuridine to prevent proliferation of nonneuronal cells. Cells were maintained in MEM/5% horse serum/2 mM glutamine in 8% CO2 incubator. The medium was changed twice weekly. For assessment of LRRK2-mediated neuronal injury, LRRK2 and eGFP constructs were combined in a molar ratio of 10:1, respectively, and transfected into neurons with Lipofectamine 2000 (Invitrogen) at DIV (day in vitro) 14. On DIV 16, images were collected on a Zeiss Automatic stage with Axiovision 6.0. Viable neurons were defined as having at least one smooth extension (neurite) with twice the length of the cell body. The percentage of eGFP-positive injured neurons in each experimental group relative to those neurons transfected with eGFP was calculated.

[8] = tested on: C. elegans expressing LRRK2 G2019S in DA neurons; assay: Transgenic nematode model of LRRK2 G2019S-induced DA neurodegeneration; type: in vivo, Caenorhabditis elegans
Procedure: Nematodes were maintained following the standard procedures. Brenner, S., 771 GENETICS 71-94 (1974). Isogenic worm strains expressing LRRK2, G2019S, UAXX [baInlX; Pdat-1::LRRK2 G2019S, Pdat-1::gfp] were generated via microinjection, integrated into the genome and out-crossed three times. Age-synchronized worms were obtained by treating gravid adults with 2% sodium hypochlorite and 0.5M NaOH to isolate embryos. Lewis, J. A., 48 METHODS CELL BIOL. 3-29 (1995). These embryos were treated with indicated concentrations of LRRK2 kinase inhibitors, which were dissolved in 1% DSMO, for 24 h. at 20° C. with gentle shaking. The worms were then washed and transferred into NGM plates seeded with OP50 bacteria, and incubated as 20° C. The six anterior DA neurons (4 CEP and 2 ADE neurons) of 30 animals/trial were examined for neurodegeneration when the animals were 7 days old. A total of 90 animals for each treatment were analyzed (3 trials of 30 animals/trial). […] See Hamamichi et al., 105(2) PROC. NATL. ACAD. SCI. USA 728-33 (2008); and Cao et al, 25 J. NEUROSCI. 3801-12 (2005). For each trial, 30 worms were transferred into a 2% agarose pad, immobilized with 2 mM levamisole, and analyzed using Nikon Eclipse E800 epifluorescence microscope equipped with Endow GFP HYQ filter cube (Chrom Technology, Rockingham, Vt.). Images were captured with a Cool Snap CCD camera (Photometrics, Tucson, Ariz.) driven by MetaMorph software (Universal Imaging, West Chester, Pa.).
To determine whether the LRRK2 kinase inhibitors protect against LRRK2-induced neurodegeneration in vivo, the LRRK2 kinase inhibitors were tested in the C. elegans model of LRRK2 G2019S-induced neurodegeneration described above. The DA transporter (dat-1) was used to direct expression of LRRK2 G2019S in DA neurons.

Row | Molecule | effect on LRRK2-mediated phosphorylation of MBP (LRRK2 WT [1]) | effect on LRRK1 autophosphorylation (LRRK1 WT [2]) | effect on LRRK1 MBP phosphorylation (LRRK1 WT [3]) | IC50 (LRRK2 WT [4]; Table 2) | LRRK2 autophosphorylation Average ± SEM (LRRK2 WT [4]) | effect on LRRK2 autophosphorylation (LRRK2 WT [4]) | IC50 (LRRK2 WT [1]; Table 2) | MBP phosphorylation Average ± SEM (LRRK2 WT [1]) | IC50 (LRRK2 G2019S [5]; Table 2) | IC50 (LRRK2 G2019S [6]; Table 2) | selectivity for LRRK2 kinase activity (LRRK2 WT [4]; LRRK2 versus LRRK1 kinase activity) | IC50 (LRRK2 WT [4]; Table 3) | IC50 (LRRK2 WT [1]; Table 3) | IC50 (LRRK2 G2019S [5]; Table 3) | IC50 (LRRK2 G2019S [6]; Table 3) | IC50 (LRRK1 WT [3]) | G2019S LRRK2 toxicity [7] | worms with wild-type DA neurons (4 CEP and 2 ADE) ([8]; 25 μM, 7-day-old worms, n=90, 48% with 1% DMSO) | rescue of DA neurodegeneration ([8]; 7 day-old worms)
1 | COc1ccc(S(=O)(=O)N(CCO)c2ccccc2CN(C)C/C=C/c2ccc(Cl)cc2)cc1 [Inhibitor 41, KN-93] | no effect | no effect | no effect | – | – | – | – | – | – | – | – | – | – | – | – | – | – | – | –
2 | Raf inhibitor IV | – | minimal to no effect | minimal to no effect | – | – | – | – | – | – | – | relatively selective | 5.43 µM | 3.61 µM | 3.94 µM | 6.51 µM | 21.5 µM | – | – | –
3 | CNC(=O)c1cc(Oc2ccc(NC(=O)Nc3ccc(Cl)c(C(F)(F)F)c3)cc2)ccn1 [Sorafenib] | – | minimal to no effect | minimal to no effect | – | – | – | – | – | – | – | – | – | – | – | – | 13.8 µM | completely protected | 62% | protect worms from neurodegeneration
4 | Nc1ncnc2c1c(I)cn2[C@@H]1O[C@H](CO)[C@@H](O)[C@H]1O [Inhibitor 49, 5-iodo-tubercidin, reference compound] | substantially inhibited | – | – | 3.21 µM | 29.4 ± 14.7 % of control | substantially inhibited | 14.8 µM | 39.3 ± 9.9 % of control | 4.23 µM | 3.41 µM | – | – | – | – | – | – | – | – | –

Now from value to molecule, other results behind:

Row | effect on LRRK2-mediated phosphorylation of MBP (LRRK2 WT [1]) | effect on LRRK1 autophosphorylation (LRRK1 WT [2]) | effect on LRRK1 MBP phosphorylation (LRRK1 WT [3]) | IC50 (LRRK2 WT [4]; Table 2) | LRRK2 autophosphorylation Average ± SEM (LRRK2 WT [4]) | effect on LRRK2 autophosphorylation (LRRK2 WT [4]) | IC50 (LRRK2 WT [1]; Table 2) | MBP phosphorylation Average ± SEM (LRRK2 WT [1]) | IC50 (LRRK2 G2019S [5]; Table 2) | IC50 (LRRK2 G2019S [6]; Table 2) | selectivity for LRRK2 kinase activity (LRRK2 WT [4]; LRRK2 versus LRRK1 kinase activity) | IC50 (LRRK2 WT [4]; Table 3) | IC50 (LRRK2 WT [1]; Table 3) | IC50 (LRRK2 G2019S [5]; Table 3) | IC50 (LRRK2 G2019S [6]; Table 3) | Molecule | IC50 (LRRK1 WT [3]) | G2019S LRRK2 toxicity [7] | worms with wild-type DA neurons (4 CEP and 2 ADE) ([8]; 25 μM, 7-day-old worms, n=90, 48% with 1% DMSO) | rescue of DA neurodegeneration ([8]; 7 day-old worms)
5 | substantially inhibited | – | – | 19.1 µM | 34.7 ± 6.2 % of control | substantially inhibited | 7.81 µM | 35.7 ± 10.3 % of control | 5.25 µM | 9.45 µM | – | – | – | – | – | COc1c(C=O)c(O)cc2c1C(=O)c1ccccc1C2=O [Inhibitor 22, Damnacanthal, reference compound] | – | – | – | –
6 | substantially inhibited | – | – | 5.27 µM | 16.1 ± 8.8 % of control | substantially inhibited | 2.19 µM | 13.0 ± 8.2 % of control | 17 µM | 2.62 µM | – | – | – | – | – | CN(C)CCCn1cc(C2=C(c3c[nH]c4ccccc34)C(=O)NC2=O)c2ccccc21 [Inhibitor 31, GP109203X, reference compound] | – | – | – | –
7 | substantially inhibited | – | – | 3.71 µM | 18.3 ± 22.8 % of control | substantially inhibited | 3.1 µM | 31.2 ± 12.1 % of control | 3.37 µM | 5 µM | – | – | – | – | – | O=C1c2ccccc2-c2n[nH]c3cccc1c23 [Inhibitor 68, SP600125, reference compound] | – | – | – | –
8 | substantially inhibited | – | – | 1.64 µM | 5.4 ± 3.0 % of control | substantially inhibited | 0.05 µM | 26.0 ± 38.5 % of control | 4.51 µM | 5.16 µM | – | – | – | – | – | Cn1cc(C2=C(c3cn(CCCSC(=N)N)c4ccccc34)C(=O)NC2=O)c2ccccc21 [Inhibitor 33, Ro31-8220, reference compound] | – | – | – | –
